Laboratory results: the NIST ThermoML archive (doi:10.1016/j.tca.2011.08.025)

Test: molar heat capacity at constant pressure
Details: 101.33 kPa, Crystal, Relaxation calorimetry

[Nd] [neodymium]
Details | molar heat capacity at constant pressure [J/K/mol]
2.151 K | 0.8396
2.367 K | 1.016
2.581 K | 1.201
2.795 K | 1.394
3.01 K | 1.604
3.226 K | 1.824
3.438 K | 2.061
3.649 K | 2.3
3.86 K | 2.548
4.072 K | 2.809
4.282 K | 3.093
4.49 K | 3.38
4.705 K | 3.673
4.913 K | 3.971
5.122 K | 4.282
5.177 K | 4.343
5.328 K | 4.571
5.524 K | 4.815
5.736 K | 5.023
5.948 K | 5.221
6.156 K | 5.44
6.362 K | 5.633
6.569 K | 5.743
6.774 K | 5.889
6.98 K | 6.064
7.186 K | 6.234
7.391 K | 6.437
7.596 K | 6.646
7.801 K | 6.846
8.006 K | 7.013
8.204 K | 6.953
8.407 K | 6.62
8.613 K | 6.23
8.819 K | 5.945
9.025 K | 5.776
9.228 K | 5.667
9.431 K | 5.598
9.437 K | 5.599
9.634 K | 5.571
9.84 K | 5.554
10.04 K | 5.573
10.2 K | 5.561
10.39 K | 5.603
10.6 K | 5.69
10.81 K | 5.744
11.01 K | 5.812
11.21 K | 5.88
11.41 K | 5.952
11.63 K | 6.046
11.84 K | 6.143
12.03 K | 6.237
12.24 K | 6.337
12.44 K | 6.442
12.66 K | 6.573
12.86 K | 6.675
13.06 K | 6.796
13.26 K | 6.922
13.47 K | 7.055
13.68 K | 7.208
13.77 K | 7.145
13.88 K | 7.299
14.1 K | 7.441
14.28 K | 7.621
14.48 K | 7.747
14.69 K | 7.885
14.92 K | 8.025
15.12 K | 8.197
15.23 K | 8.285
15.32 K | 8.377
15.77 K | 8.706
16.3 K | 9.115
16.83 K | 9.61
17.36 K | 10.08
17.88 K | 10.46
18.09 K | 10.52
18.42 K | 10.87
18.95 K | 11.22
19.48 K | 11.63
20.09 K | 11.62
20.59 K | 11.44
21.1 K | 10.32
21.61 K | 10.49
22.17 K | 11.13
22.39 K | 11.25
26.7 K | 13.57
31.01 K | 15.8
35.3 K | 17.93
39.6 K | 19.66
43.89 K | 21.19
48.19 K | 22.54
52.48 K | 23.47
56.77 K | 24.17
61.06 K | 24.73
65.35 K | 25.19
69.65 K | 25.58
73.95 K | 25.83
78.25 K | 25.98
82.54 K | 26.16
86.85 K | 26.23
91.14 K | 26.36
95.45 K | 26.37
99.73 K | 26.49
104 K | 26.61
108.3 K | 26.65
112.6 K | 26.74
116.9 K | 26.72
121.2 K | 26.78
125.5 K | 26.72
129.8 K | 26.67
134 K | 26.77
138.3 K | 26.81
142.6 K | 26.97
146.8 K | 26.95
151.1 K | 27.04
155.4 K | 27.01
159.7 K | 26.93
164 K | 26.99
168.3 K | 27.12
172.6 K | 27.08
176.9 K | 27.2
181.2 K | 27.26
185.5 K | 27.14
189.8 K | 27.14
194.1 K | 27.14
198.3 K | 27.21
202.6 K | 27.44
206.9 K | 27.36
211.2 K | 27.35
215.5 K | 27.48
219.8 K | 27.48
224.1 K | 27.64
228.4 K | 27.65
232.7 K | 27.61
237 K | 27.52
241.3 K | 27.5
245.6 K | 27.95
249.8 K | 27.71
254.1 K | 27.92
258.4 K | 27.8
262.7 K | 27.77
267 K | 27.72
271.3 K | 28.15
275.6 K | 27.76
279.9 K | 28.06
284.2 K | 28.25
288.5 K | 28.11
292.8 K | 28.27
297.1 K | 28.29
301.5 K | 28.22

[Al] [aluminum]
Details | molar heat capacity at constant pressure [J/K/mol]
5.284 K | 0.011
9.67 K | 0.035
14.08 K | 0.085
18.45 K | 0.181
22.82 K | 0.341
27.12 K | 0.602
31.49 K | 0.992
35.83 K | 1.526
40.18 K | 2.149
44.52 K | 2.841
48.85 K | 3.64
53.19 K | 4.446
57.52 K | 5.317
61.85 K | 6.177
66.18 K | 7.052
70.51 K | 7.917
74.83 K | 8.774
79.16 K | 9.582
83.49 K | 10.38
87.82 K | 11.08
92.15 K | 11.77
96.47 K | 12.46
100.7 K | 13.15
105.1 K | 13.74
109.4 K | 14.29
113.7 K | 14.88
118 K | 15.37
122.4 K | 15.87
126.7 K | 16.34
131 K | 16.78
135.3 K | 17.22
139.7 K | 17.63
144 K | 17.97
148.3 K | 18.36
152.6 K | 18.61
156.9 K | 18.93
161.2 K | 19.21
165.6 K | 19.46
169.9 K | 19.74
174.2 K | 20.03
178.5 K | 20.29
182.8 K | 20.49
187.1 K | 20.74
191.4 K | 20.96
195.7 K | 21.15
200.1 K | 21.31
204.4 K | 21.47
208.7 K | 21.66
213 K | 21.83
217.3 K | 22.01
221.7 K | 22.2
226 K | 22.34
230.3 K | 22.46
234.6 K | 22.58
238.9 K | 22.73
243.3 K | 22.82
247.6 K | 22.99
251.9 K | 23.05
256.2 K | 23.21
260.5 K | 23.34
264.9 K | 23.48
269.2 K | 23.61
273.5 K | 23.7
277.8 K | 23.73
282.1 K | 23.82
286.4 K | 23.93
290.8 K | 24.02
295.1 K | 24.12
299.4 K | 24.14
303.8 K | 24.21
